Where “and” joins values, the source holds several entries; their conditions need not be identical. Equal values may be shown once.
Tests used:
Test in all cases: Lysyl oxidase enzymatic activity, fluorescence-based assay, IC50
Format in all cases: biochemical
[1] = target: T1, Recombinant LOXL-3 (Homo sapiens, UniProt P58215)
T1 sequence (P58215 26-753): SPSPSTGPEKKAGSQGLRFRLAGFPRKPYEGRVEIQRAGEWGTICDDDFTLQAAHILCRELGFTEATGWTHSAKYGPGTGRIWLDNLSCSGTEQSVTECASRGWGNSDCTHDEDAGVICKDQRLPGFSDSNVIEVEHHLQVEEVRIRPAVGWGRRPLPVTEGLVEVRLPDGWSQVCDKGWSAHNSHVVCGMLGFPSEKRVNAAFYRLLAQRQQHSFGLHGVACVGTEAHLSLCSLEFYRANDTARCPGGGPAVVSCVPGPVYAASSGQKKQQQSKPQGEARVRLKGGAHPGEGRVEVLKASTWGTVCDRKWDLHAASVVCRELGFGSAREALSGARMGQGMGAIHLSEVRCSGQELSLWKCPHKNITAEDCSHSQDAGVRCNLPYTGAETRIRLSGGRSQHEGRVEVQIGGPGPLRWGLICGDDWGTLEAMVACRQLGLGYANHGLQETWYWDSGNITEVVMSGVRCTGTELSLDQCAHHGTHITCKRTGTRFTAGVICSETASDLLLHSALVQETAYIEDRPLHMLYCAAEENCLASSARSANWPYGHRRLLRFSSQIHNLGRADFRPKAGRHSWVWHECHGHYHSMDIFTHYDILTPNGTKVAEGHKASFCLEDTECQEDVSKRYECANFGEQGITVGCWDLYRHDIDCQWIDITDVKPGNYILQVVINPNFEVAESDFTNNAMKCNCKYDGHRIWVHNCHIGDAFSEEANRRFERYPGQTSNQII
Source text: (§1) Data are presented as mean ± s.d. […] Data presented as mean ± s.d. […] Source data TEXT PRINTED IN THE PICTURE: (b) PXS-5505: Recombinant DAO IC50 (nM): >30,000; Recombinant SSAO/VAP1 IC50 (nM): >30,000; Recombinant MAO-A IC50 (nM): >30,000; Recombinant MAO-B IC50 (nM): >30,000 | (f) PXS-5505: Fibroblast LOX IC50 (nM): 4,930; Recombinant LOXL-1 IC50 (nM): 1,590; Recombinant LOXL-2 IC50 (nM): 570; Recombinant LOXL-3 IC50 (nM): 1,800; Recombinant LOXL-4 IC50 (nM): 190
(§2) In characterizing PXS-5505, the half-maximum inhibitory concentration (IC50) values for each of the lysyl oxidase family members were determined by measuring enzymatic activity using a fluorescence-based assay.
(§3) Data presented as mean values +/− SD. f. […] Data presented as mean values +/− SD. […] Data presented as mean values +/− SD. […] Data presented as mean values +/− SD. Ordinary one-way ANOVA for multiple comparison test performed. Source data

[2] = target: T2, Recombinant LOXL-4 (Homo sapiens, UniProt Q96JB6)
T2 sequence (Q96JB6 25-756): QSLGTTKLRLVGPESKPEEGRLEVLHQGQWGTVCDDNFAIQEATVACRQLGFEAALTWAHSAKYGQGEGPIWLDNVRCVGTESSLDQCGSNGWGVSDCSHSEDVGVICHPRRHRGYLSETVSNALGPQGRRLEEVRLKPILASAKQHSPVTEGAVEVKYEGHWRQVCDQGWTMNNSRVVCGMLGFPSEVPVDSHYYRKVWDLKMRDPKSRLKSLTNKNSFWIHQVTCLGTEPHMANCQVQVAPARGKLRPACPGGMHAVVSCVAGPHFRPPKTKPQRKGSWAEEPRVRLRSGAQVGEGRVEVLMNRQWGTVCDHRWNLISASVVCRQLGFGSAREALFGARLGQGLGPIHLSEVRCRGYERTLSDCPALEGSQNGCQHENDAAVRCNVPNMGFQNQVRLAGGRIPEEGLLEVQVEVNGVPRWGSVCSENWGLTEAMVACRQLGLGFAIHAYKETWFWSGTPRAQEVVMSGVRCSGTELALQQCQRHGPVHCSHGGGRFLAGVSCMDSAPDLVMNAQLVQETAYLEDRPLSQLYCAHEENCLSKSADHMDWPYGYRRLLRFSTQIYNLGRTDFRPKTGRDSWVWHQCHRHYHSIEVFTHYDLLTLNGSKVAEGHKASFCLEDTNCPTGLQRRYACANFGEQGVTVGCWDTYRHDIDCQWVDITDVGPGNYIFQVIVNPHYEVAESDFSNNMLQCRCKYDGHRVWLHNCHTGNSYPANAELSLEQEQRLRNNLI
Source text: as §1, §2, §3

[3] = target: T3, Fibroblast LOX (Homo sapiens, UniProt P28300)
T3 construct: endogenous in cells
T3 sequence (P28300 169-417): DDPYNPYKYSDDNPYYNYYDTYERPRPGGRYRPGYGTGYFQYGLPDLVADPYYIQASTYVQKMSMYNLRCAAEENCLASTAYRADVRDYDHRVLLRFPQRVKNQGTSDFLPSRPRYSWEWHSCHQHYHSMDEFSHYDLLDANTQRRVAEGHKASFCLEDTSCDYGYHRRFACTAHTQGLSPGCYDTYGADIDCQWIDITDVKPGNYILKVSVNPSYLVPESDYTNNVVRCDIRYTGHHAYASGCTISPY
Source text: as §1, §2, §3

[4] = log(Concentration) -4.52288, replicates, 30 µM
[5] = log(Concentration) -5, replicates, 10 µM
[6] = log(Concentration) -5.47712, replicates, 3.333 µM
[7] = log(Concentration) -5.95424, replicates, 1.111 µM
[8] = log(Concentration) -6.43136, replicates, 0.3704 µM
[9] = log(Concentration) -6.90849, replicates, 0.1235 µM
[10] = log(Concentration) -7.38561, replicates, 0.04115 µM
[11] = log(Concentration) -7.86273, replicates, 0.01372 µM
[12] = log(Concentration) -8.33985, replicates, 0.004572 µM
[13] = log(Concentration) -8.81697, replicates, 0.001524 µM
[14] = log(Concentration) -9.29409, replicates, 0.000508 µM

Structure (SMILES): Cl.Cl.NC/C=C(\F)CS(=O)(=O)c1cccc2cccnc12.O [PXS-5505, (Z)-3-fluoro-4-(quinolin-8-ylsulfonyl)but-2-en-1-amine dihydrochloride monohydrate]
- IC50 [1]: 1.8 µM
- LOXL3 activity, IC50 determination curve [1, 4]: 0.995 and -0.1448 and -2.1827
- LOXL3 activity, IC50 determination curve [1, 5]: 5.702
- LOXL3 activity, IC50 determination curve [1, 6]: 36.152 and 26.2163
- LOXL3 activity, IC50 determination curve [1, 7]: 67.7528 and 54.7261
- LOXL3 activity, IC50 determination curve [1, 8]: 85.8582 and 75.7761
- LOXL3 activity, IC50 determination curve [1, 9]: 94.2403 and 83.1634
- LOXL3 activity, IC50 determination curve [1, 10]: 97.9203 and 84.9527
- LOXL3 activity, IC50 determination curve [1, 11]: 99.768 and 85.7835
- LOXL3 activity, IC50 determination curve [1, 12]: 101.158 and 89.5879
- LOXL3 activity, IC50 determination curve [1, 13]: 100.452 and 87.3896
- LOXL3 activity, IC50 determination curve [1, 14]: 100.732 and 88.8381
- activity at 10 µM ([1]; read-out: LOXL3 activity, IC50 determination curve, log(Concentration) -5, replicates): 7.74%
- activity at 3.333 µM ([1]; read-out: LOXL3 activity, IC50 determination curve, log(Concentration) -5.47712, replicates): 30.5%
- activity at 1.111 µM ([1]; read-out: LOXL3 activity, IC50 determination curve, log(Concentration) -5.95424, replicates): 62.6%
- activity at 0.3704 µM ([1]; read-out: LOXL3 activity, IC50 determination curve, log(Concentration) -6.43136, replicates): 82.5%
- activity at 0.1235 µM ([1]; read-out: LOXL3 activity, IC50 determination curve, log(Concentration) -6.90849, replicates): 98.2%
- activity at 0.04115 µM ([1]; read-out: LOXL3 activity, IC50 determination curve, log(Concentration) -7.38561, replicates): 96.9%
- activity at 0.01372 µM ([1]; read-out: LOXL3 activity, IC50 determination curve, log(Concentration) -7.86273, replicates): 96.8%
- activity at 0.004572 µM ([1]; read-out: LOXL3 activity, IC50 determination curve, log(Concentration) -8.33985, replicates): 99.1%
- activity at 0.001524 µM ([1]; read-out: LOXL3 activity, IC50 determination curve, log(Concentration) -8.81697, replicates): 100%
- activity at 0.000508 µM ([1]; read-out: LOXL3 activity, IC50 determination curve, log(Concentration) -9.29409, replicates): 99.7%
- IC50 [2]: 0.19 µM
- LOXL4 activity, IC50 determination curve [2, 4]: -2.4007 and -2.8906 and -3.2101 and -2.6712
- LOXL4 activity, IC50 determination curve [2, 5]: -1.4422 and -2.1664 and -2.1983 and -2.2521
- LOXL4 activity, IC50 determination curve [2, 6]: 0.2192 and -0.9736 and -1.1972 and -0.2715
- LOXL4 activity, IC50 determination curve [2, 7]: 5.544 and 5.363 and 4.947
- LOXL4 activity, IC50 determination curve [2, 8]: 33.33 and 26.333 and 28.4205
- LOXL4 activity, IC50 determination curve [2, 9]: 72.8948 and 68.0171 and 53.7035 and 49.075
- LOXL4 activity, IC50 determination curve [2, 10]: 94.28 and 92.9061 and 89.562 and 72.7789
- LOXL4 activity, IC50 determination curve [2, 11]: 99.5304 and 98.9021 and 84.3689
- LOXL4 activity, IC50 determination curve [2, 12]: 103.556 and 102.033 and 92.1549
- LOXL4 activity, IC50 determination curve [2, 13]: 95.8121
- LOXL4 activity, IC50 determination curve [2, 14]: 96.0112
- activity at 1.111 µM ([2]; read-out: LOXL4 activity, IC50 determination curve, log(Concentration) -5.95424, replicates): 6.34%
- activity at 0.3704 µM ([2]; read-out: LOXL4 activity, IC50 determination curve, log(Concentration) -6.43136, replicates): 39.8%
- activity at 0.01372 µM ([2]; read-out: LOXL4 activity, IC50 determination curve, log(Concentration) -7.86273, replicates): 101%
- activity at 0.004572 µM ([2]; read-out: LOXL4 activity, IC50 determination curve, log(Concentration) -8.33985, replicates): 106%
- activity at 0.001524 µM ([2]; read-out: LOXL4 activity, IC50 determination curve, log(Concentration) -8.81697, replicates): 104%
- activity at 0.000508 µM ([2]; read-out: LOXL4 activity, IC50 determination curve, log(Concentration) -9.29409, replicates): 105%
- IC50 [3]: 4.93 µM
- LOX activity, IC50 determination curve [3, 4]: -1.8303 and 0.6579 and 0.3247
- LOX activity, IC50 determination curve [3, 5]: 3.883 and 10.1684 and 20.9265 and 5.02 and 4.758 and 6.391 and 6.186 and 6.029 and 20.5369 and 17.2584 and 29.8226 and 3.623 and 26.5163 and 8.055 and 5.279 and 6.036 and 3.683 and 8.994 and 2.62 and 5.888
- LOX activity, IC50 determination curve [3, 6]: 26.3616 and 38.5547 and 37.4589 and 30.4803 and 26.5908 and 26.0097 and 25.4086 and 23.2841 and 47.0211 and 41.5569 and 54.9662 and 30.9927 and 55.9602 and 33.6452 and 26.0055 and 25.2076 and 21.7888 and 33.3569 and 26.6311 and 45.3445
- LOX activity, IC50 determination curve [3, 7]: 65.9487 and 69.3911 and 60.7313 and 65.7321 and 64.7348 and 60.684 and 73.4741 and 69.7585 and 72.3228 and 61.8434 and 76.5191 and 70.4394 and 64.4999 and 59.1047 and 54.3417 and 66.355 and 58.9798 and 55.4122
- LOX activity, IC50 determination curve [3, 8]: 87.2177 and 88.3395 and 79.2811 and 66.9609 and 65.4146 and 85.3577 and 83.5816 and 83.3016 and 85.8139 and 85.7077 and 63.7427 and 87.2402 and 81.0139 and 93.5693 and 81.2357 and 80.2494 and 78.0142 and 85.6866 and 82.1322 and 88.2018
- LOX activity, IC50 determination curve [3, 9]: 96.5523 and 90.6919 and 85.8494 and 82.293 and 94.8665 and 94.3951 and 93.9784 and 95.943 and 87.9121 and 85.7594 and 95.8669 and 88.1459 and 102.086 and 95.1473 and 93.948 and 87.9189 and 98.6889 and 90.9023 and 91.7994
- activity at 0.1235 µM ([3]; read-out: LOX activity, IC50 determination curve, log(Concentration) -6.90849, replicates): 99.8%
- activity at 0.01372 µM ([3]; read-out: LOX activity, IC50 determination curve, log(Concentration) -7.86273, replicates): 104%
- activity at 0.004572 µM ([3]; read-out: LOX activity, IC50 determination curve, log(Concentration) -8.33985, replicates): 102%
- activity at 0.001524 µM ([3]; read-out: LOX activity, IC50 determination curve, log(Concentration) -8.81697, replicates): 108%
- activity at 0.000508 µM ([3]; read-out: LOX activity, IC50 determination curve, log(Concentration) -9.29409, replicates): 105%
